Where two headings read alike, the source gives them in different places.
Columns and labels:
[1] = biological target: human CB2 receptor (Homo sapiens (Human), UniProt P34972); test: CB2 receptor binding assay ([3H]CP-55,940 displacement, HEK-293 membranes)
Description: The compounds were evaluated in CB1R and CB2R binding assays using membranes from HEK-293 cells transfected with cDNAs encoding the human recombinant CB1R (Bmax=[…] protein) and human recombinant CB2R (Bmax=[…] protein) (Perkin-Elmer). […] Compounds were tested following the procedure described by the cell membrane manufacturer. […] CB2R binding assays were carried out with two different buffers: incubation buffer (Tris-HCl, 50 mM; MgCl2, 5 mM; CaCl2 1 mM; BSA, 0.2% at pH 7.4) and washing buffer (Tris-HCl, 50 mM; NaCl 500 mM; BSA, 0.1% at pH 7.4). […] Assays were performed in duplicate and incubated for […] at 37° C. […] Data are analyzed and IC50 is calculated using GraphPad Prism 5 and the model “log(inhibitor) vs. response—Variable slope”. The binding affinity of the compounds is Determined by Using the Cheng and Prusoff Equation Ki=IC50/(1+[radioligand]/Kd).

[2] = biological target: human recombinant CB1R (Homo sapiens (Human), UniProt P21554); test: CB1 receptor binding assay ([3H]CP-55,940 displacement, HEK-293 membranes)
human recombinant CB1R, sequence (P21554 whole entry): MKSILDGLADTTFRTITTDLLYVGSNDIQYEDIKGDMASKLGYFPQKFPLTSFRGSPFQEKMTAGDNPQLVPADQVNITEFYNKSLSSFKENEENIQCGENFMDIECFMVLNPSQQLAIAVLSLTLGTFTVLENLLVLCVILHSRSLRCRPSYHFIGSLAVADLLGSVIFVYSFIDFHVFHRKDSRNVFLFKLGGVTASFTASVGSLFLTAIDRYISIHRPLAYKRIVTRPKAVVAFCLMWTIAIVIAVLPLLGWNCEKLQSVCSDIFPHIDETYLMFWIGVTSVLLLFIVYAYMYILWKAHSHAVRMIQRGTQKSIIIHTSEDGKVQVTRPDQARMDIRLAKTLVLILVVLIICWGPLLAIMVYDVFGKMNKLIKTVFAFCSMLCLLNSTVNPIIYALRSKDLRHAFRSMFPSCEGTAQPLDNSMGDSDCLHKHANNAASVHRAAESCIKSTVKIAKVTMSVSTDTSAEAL
Description: The compounds were evaluated in CB1R and CB2R binding assays using membranes from HEK-293 cells transfected with cDNAs encoding the human recombinant CB1R (Bmax=[…] protein) and human recombinant CB2R (Bmax=[…] protein) (Perkin-Elmer). […]. Compounds were tested following the procedure described by the cell membrane manufacturer. […] CB2R binding assays were carried out with two different buffers: incubation buffer (Tris-HCl, 50 mM; MgCl2, 5 mM; CaCl2 1 mM; BSA, 0.2% at pH 7.4) and washing buffer (Tris-HCl, 50 mM; NaCl 500 mM; BSA, 0.1% at pH 7.4). […] Assays were performed in duplicate and incubated for […] at 37° C. After the incubation, the assay mixture is filtered through 96 GF/C filter plates (Perkin Elmer #6005174) using Perkin Elmer Filtermate Harvester, and then washed four times with ice-cold washing buffer. The filters are dried for 1 hour at 50° C. and [^3H] trapped on filter counted for radioactivity in Perkin Elmer Microscint 20 cocktail (#6013329) using Perkin Elmer MicroBeta2 Reader. […] Data are analyzed and IC50 is calculated using GraphPad Prism 5 and the model “log(inhibitor) vs. response—Variable slope”. The binding affinity of the compounds is Determined by Using the Cheng and Prusoff Equation Ki=IC50/(1+[radioligand]/Kd).

[3] = membranes of HEK-293 cells with human recombinant CB2R, [3H]CP-55,940, class symbols, read-out: CB2 IC50
[4] = membranes of HEK-293 cells with human recombinant CB1R, [3H]CP-55,940, class symbols, read-out: CB1 IC50

human CB2 receptor, sequence (P34972 whole entry): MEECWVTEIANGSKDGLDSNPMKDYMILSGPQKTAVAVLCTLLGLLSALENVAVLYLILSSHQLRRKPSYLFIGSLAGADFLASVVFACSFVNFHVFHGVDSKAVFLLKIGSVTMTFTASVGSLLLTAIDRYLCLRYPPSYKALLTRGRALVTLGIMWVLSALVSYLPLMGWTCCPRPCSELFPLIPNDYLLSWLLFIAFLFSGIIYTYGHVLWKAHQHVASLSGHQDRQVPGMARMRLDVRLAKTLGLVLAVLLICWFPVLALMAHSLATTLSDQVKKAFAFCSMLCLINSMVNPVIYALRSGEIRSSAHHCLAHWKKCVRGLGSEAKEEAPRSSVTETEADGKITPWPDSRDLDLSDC

Row | Compound | IC50 [1, 3] | IC50 [2, 4] | IC50 [1] | other results
1 | C[C@H]1C[C@@H](NC(=O)c2c(O)c3cc(-c4ccc(F)cc4)cnc3n(CCN3CCOCC3)c2=O)C1 [Compound 113, 6-(4-fluorophenyl)-4-hydroxy-N-((1s, 3s)-3-methylcyclobutyl)-1-(2-morpholinoethyl)-2-oxo-1,2-dihydro-1,8-naphthyridine-3-carboxamide] | > 1000 nM | > 1000 nM |  | 
2 | O=C(NC1CC2(CCC2)C1)c1c(O)c2cc(-c3ccc(F)cc3)ccc2n(CCN2CCOCC2)c1=O [Compound 23, 6-(4-fluorophenyl)-4-hydroxy-1-(2-morpholinoethyl)-2-oxo-N-(spiro[3.3]heptan-2-yl)-1,2-dihydroquinoline-3-carboxamide] | < 100 nM |  |  | IC50 [2]: 100 to 999 nM
3 | O=C(NC12CC(C1)C2)c1c(O)c2cc(-c3ccc(F)cc3)cnc2n(Cc2cccnc2)c1=O [Compound 130, N-(bicyclo[1.1.1]pentan-1-yl)-6-(4-fluorophenyl)-4-hydroxy-2-oxo-1-(pyridin-3-ylmethyl)-1,2-dihydro-1,8-naphthyridine-3-carboxamide] | > 1000 nM | > 1000 nM |  | 
4 | O=C(NC1CC2(CC2)C1)c1c(O)c2cccnc2n(Cc2ccc(F)cc2)c1=O [Compound 142, 1-[(4-fluorophenyl)methyl]-4-hydroxy-2-oxo-N-spiro[2.3]hexan-5-yl-1,8-naphthyridine-3-carboxamide] |  | > 1000 nM | 100 to 999 nM | 
5 | O=C(NC12CC(C1)C2)c1c(O)c2cccnc2n(Cc2ccc(F)cc2)c1=O [Compound 139, N-(1-bicyclo[1.1.1]pentanyl)-1-[(4-fluorophenyl)methyl]-4-hydroxy-2-oxo-1,8-naphthyridine-3-carboxamide] | > 1000 nM | > 1000 nM |  | 
6 | COc1ccc(-c2ccc3c(c2)cc(C(=O)NC2CCC(C)(C)CC2)c(=O)n3CCN2CCOCC2)cc1 [Compound 39, N-(4,4-dimethylcyclohexyl)-6-(4-methoxyphenyl)-1-(2-morpholinoethyl)-2-oxo-1,2-dihydroquinoline-3-carboxamide] |  |  |  | IC50 ([1]; membranes of HEK-293 cells with human recombinant CB2R, [3H]CP-55,940, read-out: CB2 IC50): 1.2 nM; IC50 ([2]; membranes of HEK-293 cells with human recombinant CB1R, [3H]CP-55,940, read-out: CB1 IC50): > 10000 nM
7 | COC(=O)C(C)(C)NC(=O)c1c(O)c2cc(-c3ccc(F)cc3)cnc2n(CCN2CCOCC2)c1=O [Compound 119, methyl 2-(6-(4-fluorophenyl)-4-hydroxy-1-(2-morpholinoethyl)-2-oxo-1,2-dihydro-1,8-naphthyridine-3-carboxamido)-2-methylpropanoate] |  | > 1000 nM | 100 to 999 nM | 
8 | O=C(NC12CC(C1)C2)c1c(O)c2cc(-c3ccc(F)cc3)cnc2n(Cc2ccc(F)cn2)c1=O [Compound 131, N-(bicyclo[1.1.1]pentan-1-yl)-6-(4-fluorophenyl)-1-((5-fluoropyridin-2-yl)methyl)-4-hydroxy-2-oxo-1,2-dihydro-1,8-naphthyridine-3-carboxamide] | > 1000 nM | > 1000 nM |  | 
9 | O=C(NC1CC2(CCC2)C1)c1c(O)c2cc(Br)cnc2n(CCN2CCOCC2)c1=O [Compound 4, 6-bromo-4-hydroxy-1-(2-morpholinoethyl)-2-oxo-N-(spiro[3.3]heptan-2-yl)-1,2-dihydro-1,8-naphthyridine-3-carboxamide] |  |  | 100 to 999 nM | 
10 | CC(NC(=O)c1cc2cc(-c3ccc(C#N)cn3)cnc2n(CCN2CCOCC2)c1=O)c1ccc(C#N)cc1 (stereo not drawn) [Compound 41, N-(1-(4-cyanophenyl)ethyl)-6-(5-cyanopyridin-2-yl)-1-(2-morpholinoethyl)-2-oxo-1,2-dihydro-1,8-naphthyridine-3-carboxamide] |  | > 1000 nM | 100 to 999 nM | 
11 | O=C(NC12CC(C1)C2)c1c(O)c2cc(-c3ccc(F)cc3)cnc2n(CCN2CCC(F)CC2)c1=O [Compound 133, N-(bicyclo[1.1.1]pentan-1-yl)-6-(4-fluorophenyl)-4-hydroxy-2-oxo-1-(2-(4-fluoropiperidin-1-yl)ethyl)-1,2-dihydro-1,8-naphthyridine-3-carboxamide] |  | > 1000 nM | 100 to 999 nM | 
12 | C[C@H]1CC[C@H](NC(=O)c2c(O)c3cc(-c4ccc(OC(F)F)cc4)cnc3n(CCN3CCOCC3)c2=O)CC1 [Compound 155, 6-(4-(difluoromethoxy)phenyl)-4-hydroxy-N-((1R,4R)-4-methylcyclohexyl)-1-(2-morpholinoethyl)-2-oxo-1,2-dihydro-1,8-naphthyridine-3-carboxamide] | > 1000 nM | > 1000 nM |  | 
13 | O=C(NC1(CO)CCCCC1)c1c(O)c2cccnc2n(CCN2CCOCC2)c1=O [Compound 138, 4-hydroxy-N-[1-(hydroxymethyl)cyclohexyl]-1-(2-morpholinoethyl)-2-oxo-1,8-naphthyridine-3-carboxamide] |  | > 1000 nM | 100 to 999 nM | 
14 | COc1ccc(-c2cnc3c(c2)c(OC)c(C(=O)NC24CC(C2)C4)c(=O)n3CCN2CCOCC2)cc1 [Compound 177, N-(bicyclo[1.1.1]pentan-1-yl)-4-methoxy-6-(4-methoxyphenyl)-1-(2-morpholinoethyl)-2-oxo-1,2-dihydro-1,8-naphthyridine-3-carboxamide] | > 1000 nM |  |  | 
15 | O=C(NC12CC(C1)C2)c1c(O)c2cc(-c3ccc(F)cc3)cnc2n(CCN2C3COCC2C3)c1=O [Compound 166, 1-(2-(3-oxa-6-azabicyclo[3.1.1]heptan-6-yl)ethyl)-N-(bicyclo[1.1.1]pentan-1-yl)-6-(4-fluorophenyl)-4-hydroxy-2-oxo-1,2-dihydro-1,8-naphthyridine-3-carboxamide] | > 1000 nM |  |  | 
16 | COc1ccc(-c2cnc3c(c2)c(OC(C)C)c(C(=O)NC24CC(C2)C4)c(=O)n3CCN2CCOCC2)cc1 [Compound 180, N-(bicyclo[1.1.1]pentan-1-yl)-4-isopropoxy-6-(4-methoxyphenyl)-1-(2-morpholinoethyl)-2-oxo-1,2-dihydro-1,8-naphthyridine-3-carboxamide] | > 1000 nM |  |  | 
17 | C[C@H](NC(=O)c1cc2cc(-c3ccc(OC(F)F)cn3)cnc2n(CCN2CCOCC2)c1=O)c1ccc(F)cc1 [Compound 49, (S)-6-(5-(difluoromethoxy)pyridin-2-yl)-N-(1-(4-fluorophenyl)ethyl)-1-(2-morpholinoethyl)-2-oxo-1,2-dihydro-1,8-naphthyridine-3-carboxamide] | 100 to 999 nM |  |  | 
18 | O=C(NC1CC2(CCC2)C1)c1c(O)c2cc(-c3ccccc3)cnc2n(CCN2CCOCC2)c1=O [Compound 14, 4-hydroxy-1-(2-morpholinoethyl)-2-oxo-6-phenyl-N-(spiro[3.3]heptan-2-yl)-1,2-dihydro-1,8-naphthyridine-3-carboxamide] | < 100 nM |  |  | 
19 | COc1c(C(=O)NC23CC(C2)C3)c(=O)n(CCN2CCOCC2)c2ncc(-c3ccc(F)cc3)cc12 [Compound 173, N-(bicyclo[1.1.1]pentan-1-yl)-6-(4-fluorophenyl)-4-methoxy-1-(2-morpholinoethyl)-2-oxo-1,2-dihydro-1,8-naphthyridine-3-carboxamide] | > 1000 nM |  |  | 
20 | O=C(NC1CC2(CCC2)C1)c1cc2cc(-c3ccc(OC(F)F)cn3)cnc2n(Cc2ccc(F)cc2)c1=O [Compound 43, 6-(5-(difluoromethoxy)pyridin-2-yl)-1-(4-fluorobenzyl)-2-oxo-N-(spiro[3.3]heptan-2-yl)-1,2-dihydro-1,8-naphthyridine-3-carboxamide] |  |  | 100 to 999 nM | 
21 | O=C(NC12CC(C1)C2)c1c(O)c2cc(-c3ccc(F)cc3)cnc2n(CCN2CC3CC(C2)O3)c1=O [Compound 165, 1-(2-(6-oxa-3-azabicyclo[3.1.1]heptan-3-yl)ethyl)-N-(bicyclo[1.1.1]pentan-1-yl)-6-(4-fluorophenyl)-4-hydroxy-2-oxo-1,2-dihydro-1,8-naphthyridine-3-carboxamide] | > 1000 nM |  |  | 
